Assays:
[1] = tested on: VMRC-RCZ (Kidney Carcinoma); test: Bliss excess, mean over the matrix (fraction); higher = more synergy
Method in brief: (§1)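 Cell lines grown in DMEM/F12 or RPMI with 10% FBS were plated in 1536-well plates and held 24 hours at 37°C, 5% CO2 before 72 hours of exposure to two-drug dose matrices, with DMSO typically at 0.2%. CellTiter-Glo 2.0 luminescence gave viability, which was converted to inhibition. Vehicle wells were set to 0 and blank wells to 1. Combination Emax is the second-highest inhibition in the matrix, and Bliss excess is the observed combination effect minus the expected EA + EB − EA·EB, where EA and EB are the single-agent effects.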

[2] = tested on: MOG-G-CCM (Low Grade Glioma); test: as above
Method in brief: as §1

[3] = tested on: NCI-H929 (Plasma Cell Myeloma); test: as above
Method in brief: as §1

[4] = tested on: NCI-H2731 (Mesothelioma); test: as above
Method in brief: as §1

[5] = tested on: NCCIT (Other Solid Carcinomas); test: as above
Method in brief: as §1

[6] = tested on: NCI-H3122 (Lung Adenocarcinoma); test: as above
Method in brief: as §1

[7] = tested on: COR-L279 (Small Cell Lung Carcinoma); test: as above
Method in brief: as §1

[8] = tested on: KP-3 (Pancreatic Carcinoma); test: as above
Method in brief: as §1

[9] = tested on: T-T (Esophageal Squamous Cell Carcinoma); test: as above
Method in brief: as §1

[10] = tested on: OCI-AML3 (Acute Myeloid Leukemia); test: as above
Method in brief: as §1

[11] = tested on: KU812 (Chronic Myelogenous Leukemia); test: as above
Method in brief: as §1

[12] = tested on: NCI-H526 (Small Cell Lung Carcinoma); test: as above
Method in brief: as §1

[13] = tested on: SK-GT-4 (Esophageal Adenocarcinoma); test: as above
Method in brief: as §1

[14] = tested on: NCI-H520 (Squamous Cell Lung Carcinoma); test: as above
Method in brief: as §1

[15] = tested on: MN-60 (B-Lymphoblastic Leukemia); test: as above
Method in brief: as §1

[16] = tested on: SJSA-1 (Osteosarcoma); test: as above
Method in brief: as §1

[17] = tested on: ST486 (Burkitt's Lymphoma); test: as above
Method in brief: as §1

[18] = tested on: M059J (Glioblastoma); test: as above
Method in brief: as §1

[19] = tested on: DMS-114 (Small Cell Lung Carcinoma); test: as above
Method in brief: as §1

[20] = tested on: CW-2 (Colorectal Carcinoma); test: as above
Method in brief: as §1

[21] = tested on: KYSE-270 (Esophageal Squamous Cell Carcinoma); test: as above
Method in brief: as §1

[22] = tested on: VMRC-RCZ (Kidney Carcinoma); test: combination Emax (second highest fraction inhibited in the dose matrix, 72 h); higher = more inhibition; extreme values may be limits of the assay
Method in brief: as §1

[23] = tested on: MOG-G-CCM (Low Grade Glioma); test: as above
Method in brief: as §1

[24] = tested on: NCI-H929 (Plasma Cell Myeloma); test: as above
Method in brief: as §1

[25] = tested on: NCI-H2731 (Mesothelioma); test: as above
Method in brief: as §1

[26] = tested on: NCCIT (Other Solid Carcinomas); test: as above
Method in brief: as §1

[27] = tested on: NCI-H3122 (Lung Adenocarcinoma); test: as above
Method in brief: as §1

[28] = tested on: COR-L279 (Small Cell Lung Carcinoma); test: as above
Method in brief: as §1

[29] = tested on: KP-3 (Pancreatic Carcinoma); test: as above
Method in brief: as §1

[30] = tested on: T-T (Esophageal Squamous Cell Carcinoma); test: as above
Method in brief: as §1

[31] = tested on: OCI-AML3 (Acute Myeloid Leukemia); test: as above
Method in brief: as §1

[32] = tested on: KU812 (Chronic Myelogenous Leukemia); test: as above
Method in brief: as §1

[33] = tested on: NCI-H526 (Small Cell Lung Carcinoma); test: as above
Method in brief: as §1

[34] = tested on: SK-GT-4 (Esophageal Adenocarcinoma); test: as above
Method in brief: as §1

[35] = tested on: NCI-H520 (Squamous Cell Lung Carcinoma); test: as above
Method in brief: as §1

[36] = tested on: MN-60 (B-Lymphoblastic Leukemia); test: as above
Method in brief: as §1

[37] = tested on: SJSA-1 (Osteosarcoma); test: as above
Method in brief: as §1

[38] = tested on: ST486 (Burkitt's Lymphoma); test: as above
Method in brief: as §1

[39] = tested on: M059J (Glioblastoma); test: as above
Method in brief: as §1

[40] = tested on: DMS-114 (Small Cell Lung Carcinoma); test: as above
Method in brief: as §1

[41] = tested on: CW-2 (Colorectal Carcinoma); test: as above
Method in brief: as §1

[42] = tested on: KYSE-270 (Esophageal Squamous Cell Carcinoma); test: as above
Method in brief: as §1
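Throughout, for Bliss excess, mean over the matrix: after 72 h of two-drug dosing.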

C[C@@H](Nc1cc(F)cc(F)c1)c1cc(C(=O)N(C)C)cc2c(=O)cc(N3CCOCC3)oc12 [AZD8186] + C1CN(CCC1(C(=O)N[C@@H](CCO)C2=CC=C(C=C2)Cl)N)C3=NC=NC4=C3C=CN4 [AZD5363] (first compound max 10 µM, 7x7, partner max 10 µM)
Bliss excess [1]: -0.0134
Bliss excess [2]: -0.058
Bliss excess [3]: -0.0035
Bliss excess [4]: -0.0476
Bliss excess [5]: 0.0368
Bliss excess [6]: 0.0211
Bliss excess [7]: 0.0622
Bliss excess [8]: -0.0207
Bliss excess [9]: 0.0073
Bliss excess [10]: 0.031
Bliss excess [11]: -0.053
Bliss excess [12]: -0.0238
Bliss excess [13]: -0.0478
Bliss excess [14]: -0.034
Bliss excess [15]: -0.0655
Bliss excess [16]: -0.0208
Bliss excess [17]: -0.0265
Bliss excess [18]: -0.0145
Bliss excess [19]: 0.0545
Bliss excess [20]: -0.0086
Bliss excess [21]: 0.0302
combination Emax [22]: 0.386
combination Emax [23]: 0.581
combination Emax [24]: 1
combination Emax [25]: 0.305
combination Emax [26]: 0.499
combination Emax [27]: 0.522
combination Emax [28]: 0.679
combination Emax [29]: 0.312
combination Emax [30]: 0.301
combination Emax [31]: 0.428
combination Emax [32]: 0.161
combination Emax [33]: 0.147
combination Emax [34]: 0.457
combination Emax [35]: 0.564
combination Emax [36]: 0.193
combination Emax [37]: 0.426
combination Emax [38]: 0.151
combination Emax [39]: 0.408
combination Emax [40]: 0.472
combination Emax [41]: 0.275
combination Emax [42]: 0.347

— the supplement of paper PMC11061612
